One assay addresses T1, EWS-FLI1/RHA interaction (Homo sapiens, UniProt Q01543+Q01844).
T1 construct: endogenous in cells; host or cells: TC32 cells
T1 sequence (Q01844+Q01543 with tags, fused parts or gaps): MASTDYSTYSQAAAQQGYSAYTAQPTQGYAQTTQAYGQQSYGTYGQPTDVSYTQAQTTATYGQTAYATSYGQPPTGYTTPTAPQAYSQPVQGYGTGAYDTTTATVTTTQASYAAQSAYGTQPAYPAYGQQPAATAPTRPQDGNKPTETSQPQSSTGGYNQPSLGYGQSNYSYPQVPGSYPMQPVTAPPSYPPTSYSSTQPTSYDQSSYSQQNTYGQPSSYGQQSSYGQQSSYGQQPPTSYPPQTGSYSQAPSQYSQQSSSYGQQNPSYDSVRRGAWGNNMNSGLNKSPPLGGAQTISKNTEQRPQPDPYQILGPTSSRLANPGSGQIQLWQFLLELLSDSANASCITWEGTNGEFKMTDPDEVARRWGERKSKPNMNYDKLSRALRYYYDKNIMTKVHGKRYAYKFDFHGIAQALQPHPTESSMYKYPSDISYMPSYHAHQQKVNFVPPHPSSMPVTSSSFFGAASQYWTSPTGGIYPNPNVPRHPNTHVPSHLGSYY
As to the kind of experiment: Immunoblot of co-precipitated protein lysates from treated TC32 cells. Format: cell-based. The following applies: FIG. 4. An excerpt:
The disruption of the interaction of RHA with EWS-FLI1 presents an avenue for the development of a class of small molecules as potential therapeutics against the Ewing's family sarcoma tumors.

A further assay has as its system EWS-FLI1 and ESFT cells. The conditions noted are these: cited from earlier work.
Assay [1] concerns TC71 (human ESFT cell line). As to the kind of experiment: IC50 activity in TC71 cells. Format: cell-based. Here is the method:
Compounds provided in Table 2 were prepared using methods similar to those described herein. The structures and IC50 activities of particular compounds in PANC1 (a human pancreatic carcinoma), TC32 (human ESFT cell line), and TC71 (human ESFT cell line) cells are summarized in Table 2.
Growth inhibition of ESFT cells was measured for various concentrations of particular compounds.

Each structure is given as a SMILES string.

Take `COc1ccc(C(=O)CC2(O)C(=O)Nc3c(Cl)ccc(Cl)c32)cc1` (racemic) [YK-4-279]: at EWS-FLI1/RHA interaction (co-precipitation), the “disruption of interaction of RHA with EWS-FLI1” value is on record as “did disrupt their interactions”. Besides, on EWS-FLI1/RHA interaction (immunoblot), the “effect on level of EWS-FLI1 or RHA” value is “did not directly affect the level of EWS-FLI1 or RHA”. For the same molecule, in the assay on EWS-FLI1 and ESFT cells, the caspase-3 activity entry is given as “increase”; the “functional inhibition of EWS-FLI1 and ESFT cells” value is “functionally inhibit EWS-FLI1 and ESFT cells”.
In the case of `CN(C)c1ccc(C(=O)CC2(O)C(=O)Nc3c(Cl)ccc(Cl)c32)cc1` (centres unmarked) [PT-1-17], in assay [1], the “potency compared with YK-4-279” value is given as “appeared to be more potent”.

Source of the values: patent publication US9714222B2, “Methods and compositions for treating Ewings sarcoma family of tumors” (GEORGETOWN UNIVERSITY, priority 2012, dated 2017).
